For experiment [1], the system named is Human peripheral blood mononuclear cells (PBMC). The experiment in a line: PBMC screening assay, TNF-α in supernatant. Format: cell-based. The conditions noted are these: 24 hours, TNF-α in supernatant by ELISA or HTRF. As to the method: Human peripheral blood mononuclear cells (PBMC) were obtained from BenTek, frozen at 25×10^6 cell/mL in 10% DMSO (Sigma) prepared in fetal bovine serum (Gibco) and stored in liquid nitrogen. For culture PBMC were thawed quickly in a 37° C. water bath and diluted into pre-warmed RPMI 1640 (Lonza) supplemented with 10% fetal bovine serum, 2 mM glutamine, 50 μg/mL penicillin, 50 U/mL streptomycin (all from Gibco) and centrifuged for 5 minutes at 500×g. PBMC were suspended into the growth media described above and cultured at a concentration of 1×10^6 cells per mL at 37° C. in a 5% CO2 incubator.
PBMC were thawed, suspended at a concentration of 1×10^6 cell/mL in growth media and 200 μL was aliquoted into each well of a 96-well plate for a total of 0.2×10^6 cells per well. PBMC were incubated for 16-18 hours at 37° C. in a 5% CO2 humidified incubator. The following day PBMC plates were centrifuged at 500×g for 5 minutes and the growth media was removed. […] TNF-α activity was assessed in the supernatant by ELISA (eBioscience) or HTRF (CisBio) per the manufacturer's instructions. Optical density at 450 nm and 570 nm (ELISA) or luminescence (HTRF) was analyzed using an Envision (Perkin Elmer) plate reader, as shown in Table 5.
On the technique in general: An ELISA detects its analyte on a solid surface through an enzyme-linked reagent.

Experiment [2] relates to human monocytes injected intratumorally. The experiment in a line: Antigen dependent monocyte activation in a mouse tumor model. Format: in vivo, NOD SCID mice. Particulars: 5-20 mg/kg intravenously. As for the experimental part: Human monocytes were prepared as described above. Trop2^+ MDA-MB-453 cells or Trop2-MiaPaca2 were cultured by standard methods. A TLR8 benzazepine linker payload (LP) was prepared by attaching a MCC (N-maleimidomethyl]cyclohexane-1-carboxylate) linker in place of the mc-vc-PABA linker in Compound-Linker 2.1 to form Compound-Linker 2.22. TROP2-TLR8 benzazepine conjugates were prepared by conjugation of Compound-Linker 2.22 to a TROP2 antibody (sacituzumab) to form a conjugate with an average DAR of about 4.
On Day 1 NOD SCID mice were injected with 5×10^5 Trop2^+ MDA-MB-453 cells or Trop2-MiaPaca2 cells. Seven to ten days later when the tumor size reached about 300 mm^3, the mice were injected intravenously with 5-20 mg/kg of the TROP2-TLR8 benzazepine conjugate or TROP2 antibody alone. Sixteen hours later, 10^6 human monocytes were injected intratumorally. Four to six hours later, the tumors were harvested and digested. Monocytes were identified by staining for cell surface markers and monocyte activation was determined by intracellular staining for IL-6.

As a reminder, the EC50 is the concentration at which the effect is half-maximal. High values mean a need for much substance, low ones an effect from little substance.

Compound `CCCN(CCC)C(=O)C1=Cc2ccc(C(=O)NC3C[C@@H]3c3ccccc3)cc2N=C(N)C1` (stereo partly shown) [Compound 1.28] displayed an EC50 in experiment [1] of less than 500 nM.
`CCCN(CCC)C(=O)C1=Cc2ccc(C(=O)Nc3ccc4c(c3)CN(C(=O)OCc3ccccc3)CC4)cc2N=C(N)C1` [Compound 1.30] came in with an EC50 in experiment [1] of less than 500 nM.
With “control antibody: "TROP2 antibody alone" (sacituzumab) in Example 16; elsewhere the unconjugated parental aTROP2 or aHER2 antibody”, the “human monocyte activation (intracellular staining for IL-6)” value in experiment [2] (mice having a TROP2-tumor (MiaPaca2)) and in experiment [2] (mice having a TROP2^+ tumor (MDA-MB-453)) was “did not cause human monocyte activation” throughout.
